According to patent US11992010B2, “Use of 4-(phenylethynyl) benzoic acid” (China Jiliang University, priority 2022, dated 2024):

Legend:
[1] = system: Arabidopsis seeds; experiment: Seed germination experiment on Arabidopsis; format: in vivo, Arabidopsis thaliana L. Columbia, Col-0 ecotype; conditions: for Germination potential/% (48 h): control 45.31 ± 6.63; for Ultimate germination rate/%: control 88.32 ± 1.15
Description: (§1) The seeds of Arabidopsis wild type (Arabidopsis thaliana L. Columbia, Col-0 ecotype) were provided by the lab of plant quality & safety biology in China Jiliang university. The commercial tomato seeds (Solanum lycopersicum CV. Zhefen 202) were provided by Zhejiang Academy of Agricultural Sciences.
(§2) The 4-(Phenylethynyl) benzoic acid solutions were prepared as follows: 22.9 mg 4-(Phenylethynyl) benzoic acid was weighted and dissolved in 1 mL DMSO to make the 100 mM 4-(Phenylethynyl) benzoic acid mother solution. The working solutions applied were prepared by diluting the 4-(phenylethynyl) benzoic acid mother solution with water. For example, the 4-(Phenylethynyl) benzoic acid treatment solutions at the concentrations of 1 μM, 10 μM, and 50 μM were prepared by diluting 1 μL of the 100 mM 4-(phenylethynyl) benzoic acid mother solution to 100 mL, 10 mL, or 2 mL with water. DMSO was supplemented to a final concentration of 0.05% (V:V).
(§3) 0.05% DMSO water solution then used as a control solution.
Arabidopsis seeds were soaked in 4-(Phenylethynyl) benzoic acid treatment solutions at the concentrations of 1 μM, 10 μM, and 50 μM for 3 days under dark at 4° C., respectively. Seeds soaked in the 0.05% DMSO water solution were used as control. On the fourth day, Seeds were transformed to light at 25° C. in 2-cm-diameter Petri dishes with two layers of filter papers. Different concentrations of 4-(Phenylethynyl) benzoic acid treatment solutions were added as germination liquids. 0.05% DMSO water solution was used as control. 30-50 seeds were placed on the moist filter paper in a Petri dish. There were three replicates for each treatment. After germination for 30 h, 42 h, 48 h, and 66 h in a growth chamber (25° C.), the germination rate (the proportion of the total number of the seeds germinated corresponding to each time point after the start of the germination experiment to the total number of seeds to be tested) was calculated, respectively. The germination rate at 48 h was adopted as the germination potential (the proportion of the total number of the seeds germinated corresponding to 48 h after the start of the germination experiment to the total number of seeds to be tested).

[2] = system: stomata of tomato leaves; experiment: Stomata closure in abaxial epidermal strips of tomato; format: cell-based, Solanum lycopersicum CV. Zhefen 202; conditions: 50 μM, 3 hours, compared to the control
Description: The commercial tomato seeds (Solanum lycopersicum CV. Zhefen 202) were provided by Zhejiang Academy of Agricultural Sciences.
The concentration of 4-(Phenylethynyl) benzoic acid used in this example was 50 μM. Every 1 μL of the 100 mM 4-(Phenylethynyl) benzoic acid mother solution in Example 1 was diluted to 2 mL with MES-KCl buffer (10 mM MES, 50 mM KCl, pH 6.15). 0.5% Tween-80 (V:V) was added to increase the solubility and stability of 4-(Phenylethynyl) benzoic acid. The solution was mixed evenly by stirring efficiently and it was ensured that no 4-(phenylethynyl) benzoic acid was precipitated, and finally 50 μM 4-(phenylethynyl) benzoic acid was prepared.
The control solution was the MES-KCl buffer containing 0.05% DMSO and 0.5% Tween-80.
Abaxial epidermal strips of tomato were firstly peeled from washed leaves, then immersed in MES-KCl buffer (10 mM MES, 50 mM KCl, pH 6.15) under light at 28° C. to induce stomatal opening. After 2 hours, abaxial epidermal strips of tomato were treated with the control solution (MES-KCl buffer with 0.05% DMSO and 0.5% Tween-80) and 50 μM 4-(Phenylethynyl) benzoic acid treatment solution (MES-KCl buffer with 50 μM 4-(Phenylethynyl) benzoic acid, 0.05% DMSO and 0.5% Tween-80) for 3 hours, respectively. […] Widths and lengths of stomata were measured and the aperture ratios (width:length) were calculated. […]

[3] = system: tomato seeds; experiment: Seed germination experiment on tomato; format: in vivo, Solanum lycopersicum CV. Zhefen 202; conditions: 50 μM
Description: as §1, §2, §3
For tomato, 80 seeds were sowed on two layers of filter papers in a 6-cm-diameter Petri dish with germination liquids. 4-(Phenylethynyl) benzoic acid treatment solution at the concentration of 50 μM and 0.05% DMSO water solution (Control) were used as the germination liquids. There were three replicates for each treatment. After germination for 24 h, 36 h, 48 h, 60 h, 72 h, 84 h in a growth chamber (25° C.), the germination rate (the proportion of the total number of the seeds germinated corresponding to each time point after the start of the germination experiment to the total number of seeds to be tested) was calculated, respectively. The germination rate at 48 h was adopted as the germination potential (the proportion of the total number of the seeds germinated corresponding to 48 h after the start of the germination experiment to the total number of seeds to be tested).

[4] = system: rice radicle; experiment: Rice radicle elongation; format: in vivo, Oryza sativa L. Datian Nip
Description: Rice cultivar (Oryza sativa L. Datian Nip) was provided by Zhejiang Academy of Agricultural Sciences.
Every 1 μL 4-(Phenylethynyl) benzoic acid mother solution in Example 1 was diluted with water to 2 mL or 500 μL to prepare 50 μM or 200 μM 4-(Phenylethynyl) benzoic acid treatment solutions. 0.05% DMSO water solution was used as the control solution for 50 μM 4-(Phenylethynyl) benzoic acid treatment solution and 0.2% DMSO water solution was used as the control solution for 200 μM 4-(Phenylethynyl) benzoic acid treatment solution respectively.
A volume of 10 ml 4-(Phenylethynyl) benzoic acid treatment solutions at various concentrations were added to 9-cm-diameter Petri dishes with two layers of filter papers. 100 seeds were placed on the moist filter paper in a Petri dish. 0.05% DMSO water solution was used as control for 50 μM 4-(Phenylethynyl) benzoic acid treatment solution. 0.2% DMSO water solution was used as control for 200 μM 4-(Phenylethynyl) benzoic acid treatment solution. There were three replicates for each treatment. Seeds were germinated under light at 28° C. The seeds that germinated between the second and the third day after imbibition were chosen and their radicle length were measured on the fifth day.

Question: How did the “germination of Arabidopsis seeds (in words)” value ([1]; 10 μM and 50 μM, 50 μM exhibited a stronger effect) turn out when `O=C(O)c1ccc(C#Cc2ccccc2)cc1` [4-(Phenylethynyl) benzoic acid] was run?
Answer: significantly slowed down the germination

Question: And the “Germination potential/% (48 h)” value ([1]; Arabidopsis, 1 μM)?
Answer: 37.50 ± 7.50 a %

Question: And the Ultimate germination rate/% ([1]; Arabidopsis, 1 μM)?
Answer: 92.33 ± 0.29 a %

Question: What about the “decrease in germination potential” value ([1]; Arabidopsis, 10 μM) of the same compound?
Answer: > 20%

Question: And the “Germination potential/% (48 h)” value ([1]; Arabidopsis, 10 μM)?
Answer: 14.53 ± 6.40 b %

Question: And the Ultimate germination rate/% ([1]; Arabidopsis, 10 μM)?
Answer: 85.24 ± 7.41 a %

Question: What about the “germination rate reduction ultimately” value ([1]; Arabidopsis, 50 μM) of the same compound?
Answer: > 80%

Question: What about the Ultimate germination rate/% ([1]; Arabidopsis, 50 μM) of the same compound?
Answer: 2.30 ± 3.98 b %

Question: What about the “aperture ratio (width:length) (in words)” value [2] of the same compound?
Answer: significantly reduced

Question: What about the “stomata aperture (in words)” value [2] of the same compound?
Answer: significantly reduced

Question: And the “tomato seeds germination (in words)” value ([3]; compared to the control)?
Answer: significantly inhibited the germination process and reduced the germination rate

Question: And the “Germination potential/% (48 h)” value ([3]; Tomato, 48 h, control 20.83 ± 1.90)?
Answer: 0.00 ± 0.00 b %

Question: And the Ultimate germination rate/% ([3]; Tomato, control 88.75 ± 6.25)?
Answer: 10.41 ± 2.88 b %

Question: And the “rice radicle elongation (in words)” value ([4]; 50 μM and 200 μM, relative to their controls, 200 μM significantly better than 50 μM)?
Answer: significantly inhibited rice radicle elongation

Question: What about the activity at 50 µM ([4]; Oryza sativa, rice, 50 μM, control 0.05% DMSO, read-out: radicle length, % of control treatment) of the same compound?
Answer: 48.2%

Question: What about the activity at 200 µM ([4]; Oryza sativa, rice, 200 μM, control 0.2% DMSO, read-out: radicle length, % of control treatment) of the same compound?
Answer: 20.3%
